Patent US7205316B2, “Tri- and bi-cyclic heteroaryl histamine-3 receptor ligands” (Abbott Laboratories, priority 2004, dated 2007)
Structures can show the parent of a compound that is named as a salt.

melting point: 182 to 183 °C
Structure (SMILES): Cc1nc2cc(-c3ccc4nc(CCN5CCC[C@H]5C)ccc4c3)ccc2s1 (as salt: hydrochloride) [Example 14, 6-(2-Methyl-benzothiazol-5-yl)-2-[2-(2R-methyl-pyrrolidin-1-yl)-ethyl]-quinoline]
